Assay results reported in patent publication US20230066286A1, “DEUTERATED TRYPTAMINE DERIVATIVES AND METHODS OF USE” (priority 2020, published 2023).

Columns and labels:
[1] = Blood-to-plasma ratio (BPR), parent drug in brain and plasma of rats; format: in vivo, rat; conditions: % change vs. non-deuterated material
Protocol: (§1) The key PK parameters (presented as a % change vs. non-deuterated materials) are presented in Table 3 to include half-life (T½), area under the curve (AUC), bioavailability (F) and blood-to-plasma ration (BPR). Pharmacokinetics of the deuterated tryptamines was studied in rats. In a typical experiment, run as a cassette dosing, two groups of 5 Wistar female rats (200-250 g) with surgically inserted jugular vein catheter (Charles River, Andover, MA) were fasted for 12 h and then administered 5 mg/kg of the deuterated and 5 mg/kg of the related non-deuterated analog, by oral gavage or via a catheter for each group. At time points 0, 15, 30, 60 min, and 2, 4, 8, and 24 h, the resulting plasma was analyzed for the parent molecule using LC/MS spectroscopy. Two separate groups of 5 animals were used for determining blood-to-plasma ratio (BPR). Each group was sacrificed at time points 15 and 30 min, respectively, and the concentration of the parent drug was determined in the […] and plasma by LC/MS spectroscopy.

5-HT1A [2] = biological target: T1, 5-HT1A (Homo sapiens, UniProt P08908); assay: Receptor affinity assay, radioligand competition binding
T1 construct: expressed in transfected cells; host or cells: CHO-K1 or HEK293
T1 sequence (P08908 1-422): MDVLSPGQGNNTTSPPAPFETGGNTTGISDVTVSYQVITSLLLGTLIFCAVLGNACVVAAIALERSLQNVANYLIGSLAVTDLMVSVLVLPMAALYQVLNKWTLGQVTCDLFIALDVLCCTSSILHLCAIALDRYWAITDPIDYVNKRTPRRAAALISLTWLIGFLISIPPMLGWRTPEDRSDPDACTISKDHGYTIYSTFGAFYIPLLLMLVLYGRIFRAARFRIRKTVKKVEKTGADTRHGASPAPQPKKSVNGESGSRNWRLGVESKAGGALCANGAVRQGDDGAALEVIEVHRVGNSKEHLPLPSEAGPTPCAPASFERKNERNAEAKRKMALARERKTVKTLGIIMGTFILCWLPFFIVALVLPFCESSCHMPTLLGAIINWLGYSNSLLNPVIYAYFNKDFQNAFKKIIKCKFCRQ
Protocol: Receptor Affinity Assays: 5-HT1A, 5-HT2(A,B,C) receptor affinities were determined by radioligand competition binding. Membranes from CHO-K1 or HEK293 cells expressing serotonergic receptors were collected and incubated in assay buffer with Kd concentrations of radioligands and tests compounds that compete for receptor binding sites. After equilibration, the reaction was terminated by collecting ligand-receptor-membrane complexes (Microbeta, PerkinElmer), and radioactivity was measured by a scintillation counter (Microbeta2, PerkinElmer). Data were fit to non-linear curves, and Ki values were calculated per the Cheng-Prusoff equation.

5-HT1A [3] = biological target: T1, 5-HT1A; assay: Receptor function assay, Gi stimulation (reduction in cAMP levels); format: cell-based
Protocol: Receptor Function Assays: 5-HT1A receptor-mediated Gi stimulation (reduction in cyclic adenosine monophosphate (cAMP) levels) and 5-HT2(A,B,C) receptor-mediated Gq stimulation (phosphoinositide hydrolysis leading to the production of inositol phosphate 1 (IP1))-canonical signaling pathways—were measured as previously described (Canal et al., 2013), for example, with a homogeneous time-resolved fluorescence (HTRF) capable microplate reader (e.g., Mithras LB 940, Berthold) using commercially-available kits employing Fluorescence Resonance Energy Transfer (FRET) technology (e.g., LANCE Ultra cAMP TR-FRET (PerkinElmer) and IP-One HTRF (Cisbio) kits). Briefly, CHO-K1 or HEK293 cells expressing serotonergic receptors were incubated with test compounds in stimulation buffer. After equilibration, the reaction was terminated with the donor and acceptor fluorescent conjugates in lysis buffer, and FRET was measured. Data were fit to non-linear curves to calculate potencies (e.g., EC50) and efficacies (e.g., EMAX), relative to positive controls (e.g., serotonin).

[4] = PK study in rats, cassette dosing; format: in vivo, rat; conditions: % change vs. non-deuterated material, 5 mg/kg
Protocol: as §1

**Q.** For `[2H]C([2H])(Cc1c[nH]c2cccc(O)c12)N(C)C` [PI-α,α-d2], which “BPR, 15 min, deuterium kinetic isotope effect (% change)” value ([1]; rats sacrificed at 15 min) is on record?
**A.** The value was 100%.

**Q.** And the “BPR, 30 min, deuterium kinetic isotope effect (% change)” value ([1]; rats sacrificed at 30 min)?
**A.** Its value is 150%.

**Q.** What about the Ki (5-HT1A [2]) of the same molecule?
**A.** Its Ki is 510 nM.

**Q.** And the EC50 (5-HT1A [3])?
**A.** The EC50 was 200 nM.

**Q.** And the “AUC, deuterium kinetic isotope effect (% change)” value ([4]; oral gavage or via catheter)?
**A.** The value was 75%.

**Q.** And the “T½, deuterium kinetic isotope effect (% change)” value ([4]; oral gavage or via catheter)?
**A.** The value was 50%.

**Q.** What about the bioavailability ([4]; female, Wistar, rat, plasma, oral, read-out: F (bioavailability), deuterium kinetic isotope effect (% change)) of the same molecule?
**A.** The bioavailability was 45%.
